From PubChem BioAssay (NCI)
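The compound was tested at five concentrations on cells cultured in 96-well plates, with a 48-hour exposure period. Abbreviation: GI50, concentration required for 50% inhibition of growth. At the TGI there is no net growth.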

Tests used:
Test in all cases: growth of human tumour cells (NCI), 48 h
M14 melanoma = test system: M14 melanoma
HOP-62 NSCLC = test system: HOP-62 NSCLC
HT29 colon = test system: HT29 colon
SW-620 colon = test system: SW-620 colon
SNB-75 CNS = test system: SNB-75 CNS
SK-MEL-2 melanoma = test system: SK-MEL-2 melanoma
BT-549 breast = test system: BT-549 breast
NCI/ADR-RES ovarian = test system: NCI/ADR-RES ovarian
HS 578T breast = test system: HS 578T breast
KM12 colon = test system: KM12 colon
EKVX NSCLC = test system: EKVX NSCLC
OVCAR-5 ovarian = test system: OVCAR-5 ovarian
UO-31 renal = test system: UO-31 renal
SF-268 CNS = test system: SF-268 CNS
HCT-15 colon = test system: HCT-15 colon
OVCAR-8 ovarian = test system: OVCAR-8 ovarian
A498 renal = test system: A498 renal
IGROV1 ovarian = test system: IGROV1 ovarian
RXF 393 renal = test system: RXF 393 renal
NCI-H460 lung = test system: NCI-H460 lung
CCRF-CEM leukemia = test system: CCRF-CEM leukemia
MCF7 breast = test system: MCF7 breast
HOP-92 NSCLC = test system: HOP-92 NSCLC
UACC-257 melanoma = test system: UACC-257 melanoma
NCI-H226 lung = test system: NCI-H226 lung
OVCAR-3 ovarian = test system: OVCAR-3 ovarian
OVCAR-4 ovarian = test system: OVCAR-4 ovarian
SF-295 CNS = test system: SF-295 CNS
A549 NSCLC = test system: A549 NSCLC
MDA-MB-435 = test system: MDA-MB-435
ACHN renal = test system: ACHN renal
HL-60(TB) leukemia = test system: HL-60(TB) leukemia
SK-MEL-28 melanoma = test system: SK-MEL-28 melanoma
TK-10 renal = test system: TK-10 renal
HCC-2998 colon = test system: HCC-2998 colon
CAKI-1 renal = test system: CAKI-1 renal
MALME-3M melanoma = test system: MALME-3M melanoma
SK-OV-3 ovarian = test system: SK-OV-3 ovarian
786-0 renal = test system: 786-0 renal
COLO 205 colon = test system: COLO 205 colon
HCT-116 colon = test system: HCT-116 colon
PC-3 prostate = test system: PC-3 prostate
SN12C renal = test system: SN12C renal
SR leukemia = test system: SR leukemia
K-562 leukemia = test system: K-562 leukemia
SK-MEL-5 melanoma = test system: SK-MEL-5 melanoma
MOLT-4 leukemia = test system: MOLT-4 leukemia
UACC-62 melanoma = test system: UACC-62 melanoma
T-47D breast = test system: T-47D breast
MDA-MB-231 breast = test system: MDA-MB-231 breast
LOX IMVI melanoma = test system: LOX IMVI melanoma
NCI-H23 lung = test system: NCI-H23 lung
U251 CNS = test system: U251 CNS
NCI-H522 lung = test system: NCI-H522 lung
SNB-19 CNS = test system: SNB-19 CNS
SF-539 CNS = test system: SF-539 CNS
DU-145 prostate = test system: DU-145 prostate

O=C(Nc1ccc(Cl)cc1)Nc1nc2ccc([N+](=O)[O-])cc2s1
GI50 (M14 melanoma): 815 nM | TGI (M14 melanoma): 2240 nM | GI50 (HOP-62 NSCLC): 1190 nM | TGI (HOP-62 NSCLC): 3130 nM | GI50 (HT29 colon): 2570 nM | TGI (HT29 colon): 7140 nM | GI50 (SW-620 colon): 840 nM | TGI (SW-620 colon): 2340 nM | GI50 (SNB-75 CNS): 952 nM | TGI (SNB-75 CNS): 3510 nM | GI50 (SK-MEL-2 melanoma): 554 nM | TGI (SK-MEL-2 melanoma): 2320 nM | GI50 (BT-549 breast): 593 nM | TGI (BT-549 breast): 1760 nM | GI50 (NCI/ADR-RES ovarian): 880 nM | TGI (NCI/ADR-RES ovarian): 2280 nM | GI50 (HS 578T breast): 1170 nM | TGI (HS 578T breast): 3870 nM | GI50 (KM12 colon): 642 nM | TGI (KM12 colon): 2310 nM | GI50 (EKVX NSCLC): 886 nM | TGI (EKVX NSCLC): 2660 nM | GI50 (OVCAR-5 ovarian): 1850 nM | TGI (OVCAR-5 ovarian): 4450 nM | GI50 (UO-31 renal): 545 nM | TGI (UO-31 renal): 2450 nM | GI50 (SF-268 CNS): 1090 nM | TGI (SF-268 CNS): 3460 nM | GI50 (HCT-15 colon): 675 nM | TGI (HCT-15 colon): 2110 nM | GI50 (OVCAR-8 ovarian): 1270 nM | TGI (OVCAR-8 ovarian): 4700 nM | GI50 (A498 renal): 275 nM | TGI (A498 renal): 996 nM | GI50 (IGROV1 ovarian): 1080 nM | TGI (IGROV1 ovarian): 2680 nM | GI50 (RXF 393 renal): 587 nM | TGI (RXF 393 renal): 1940 nM | GI50 (NCI-H460 lung): 468 nM | TGI (NCI-H460 lung): 1700 nM | GI50 (CCRF-CEM leukemia): 393 nM | TGI (CCRF-CEM leukemia): 1850 nM | GI50 (MCF7 breast): 460 nM | TGI (MCF7 breast): 1910 nM | GI50 (HOP-92 NSCLC): 187 nM | TGI (HOP-92 NSCLC): 628 nM | GI50 (UACC-257 melanoma): 639 nM | TGI (UACC-257 melanoma): 2790 nM | GI50 (NCI-H226 lung): 777 nM | TGI (NCI-H226 lung): 2460 nM | GI50 (OVCAR-3 ovarian): 435 nM | TGI (OVCAR-3 ovarian): 1590 nM | GI50 (OVCAR-4 ovarian): 573 nM | TGI (OVCAR-4 ovarian): 3130 nM | GI50 (SF-295 CNS): 728 nM | TGI (SF-295 CNS): 2120 nM | GI50 (A549 NSCLC): 837 nM | TGI (A549 NSCLC): 3430 nM | GI50 (MDA-MB-435): 729 nM | TGI (MDA-MB-435): 2200 nM | GI50 (ACHN renal): 751 nM | TGI (ACHN renal): 2290 nM | GI50 (HL-60(TB) leukemia): 604 nM | TGI (HL-60(TB) leukemia): 2020 nM | GI50 (SK-MEL-28 melanoma): 663 nM | TGI (SK-MEL-28 melanoma): 2020 nM | GI50 (TK-10 renal): 889 nM | TGI (TK-10 renal): 4320 nM | GI50 (HCC-2998 colon): 590 nM | TGI (HCC-2998 colon): 2080 nM | GI50 (CAKI-1 renal): 653 nM | TGI (CAKI-1 renal): 2510 nM | GI50 (MALME-3M melanoma): 467 nM | TGI (MALME-3M melanoma): 1870 nM | GI50 (SK-OV-3 ovarian): 843 nM | TGI (SK-OV-3 ovarian): 4510 nM | GI50 (786-0 renal): 776 nM | TGI (786-0 renal): 2390 nM | GI50 (COLO 205 colon): 1700 nM | TGI (COLO 205 colon): 3290 nM | GI50 (HCT-116 colon): 346 nM | TGI (HCT-116 colon): 1270 nM | GI50 (PC-3 prostate): 380 nM | TGI (PC-3 prostate): 1630 nM | GI50 (SN12C renal): 647 nM | TGI (SN12C renal): 2590 nM | GI50 (SR leukemia): 566 nM | TGI (SR leukemia): 2280 nM | GI50 (K-562 leukemia): 375 nM | TGI (K-562 leukemia): 1550 nM | GI50 (SK-MEL-5 melanoma): 365 nM | TGI (SK-MEL-5 melanoma): 1330 nM | GI50 (MOLT-4 leukemia): 438 nM | TGI (MOLT-4 leukemia): 1980 nM | GI50 (UACC-62 melanoma): 485 nM | TGI (UACC-62 melanoma): 2140 nM | GI50 (T-47D breast): 308 nM | TGI (T-47D breast): 1280 nM | GI50 (MDA-MB-231 breast): 1120 nM | TGI (MDA-MB-231 breast): 2920 nM | GI50 (LOX IMVI melanoma): 727 nM | TGI (LOX IMVI melanoma): 2060 nM | GI50 (NCI-H23 lung): 332 nM | TGI (NCI-H23 lung): 1260 nM | GI50 (U251 CNS): 606 nM | TGI (U251 CNS): 2570 nM | GI50 (NCI-H522 lung): 378 nM | TGI (NCI-H522 lung): 2890 nM | GI50 (SNB-19 CNS): 735 nM | TGI (SNB-19 CNS): 2750 nM | GI50 (SF-539 CNS): 915 nM | TGI (SF-539 CNS): 2350 nM | GI50 (DU-145 prostate): 1110 nM | TGI (DU-145 prostate): 5150 nM
